# Columns and labels:
# Assay type in all cases: in vivo
# [1] = system: Diamond Back Moth (Plutella xylostella); experiment: Insecticidal effect on diamond back moth (Test Example 1); conditions: 500 ppm; Chinese cabbage seedling with eggs immersed about 30 seconds; six days after the immersion; 25° C.
# From the text: Insecticidal Effect on Diamond Back Moth (Plutella xylostella)
# Adult diamond back moths were released and allowed to oviposit on a Chinese cabbage seedling. Two days after the release, the seedling having the eggs deposited thereon was immersed for about 30 seconds in a liquid chemical prepared by diluting a preparation containing each compound listed in Tables 1 to 4 as an active ingredient to adjust the concentration to 500 ppm. After air-dryness, it was allowed to stand in a room thermostatted at 25° C. Six days after the immersion, the hatched insects were counted. The mortality was calculated according to the following equation and the insecticidal effect was judged according to the criterion shown below. The test was carried out with triplicate groups of 10 insects.
# [2] = system: Green Peach Aphid (Myzus Persicae); experiment: Insecticidal effect on green peach aphid (Test Example 4); conditions: 500 ppm; stems and leaves of Chinese cabbage sprayed; six days after the spraying; greenhouse
# From the text: Insecticidal Effect on Green Peach Aphid (Myzus Persicae)
# A Chinese cabbage plant was planted in each of plastic pots with a diameter of 8 cm and a height of 8 cm, and green peach aphids were propagated on the plant. Then, the stems and leaves were sufficiently sprayed with a liquid chemical prepared by diluting a preparation containing each compound listed in Tables 1 to 4 as an active ingredient to adjust the concentration to 500 ppm. After air-drying, the pots were allowed to stand in a greenhouse. Six days after the spraying, green peach aphids parasitic on each Chinese cabbage plant were counted and the control efficacy was calculated, whereby the […] effect was judged according to the criterion shown below. Control efficacy (%)=100−[(T×Ca)/(Ta×C)]×100 • Ta: number of parasites before spraying in treated group, • T: number of parasites after spraying in treated group,
# Ca: number of parasites before spraying in untreated group, • […]: number of parasites after spraying in untreated group. Criterion for Judgment: • A: control efficacy 100% • B: control efficacy 99 to 90% • C: control efficacy 89 to 80% • D: control efficacy 79 to 50%
# [3] = system: Two-Spotted Spider Mite (Tetranychus Urticae); experiment: Acaricidal effect on two-spotted spider mite (Test Example 3); conditions: 500 ppm; kidney bean leaf disc with female adults sprayed; two days after the treatment; 25° C.
# Method: Acaricidal Effect on Two-Spotted Spider Mite (Tetranychus Urticae)
# A leaf disc with a diameter of 2 cm was made of a kidney bean leaf, placed on wet filter paper, inoculated with female adult two-spotted spider mites, and then uniformly sprayed, on a turntable, with 50 ml of a liquid chemical prepared by diluting a preparation containing each compound listed in Tables 1 to 4 as an active ingredient to adjust the concentration to 500 ppm. After the spraying, the leaf disc was allowed to stand in a room thermostated at 25° C. Two days after the treatment with the preparation, the dead insects were counted and the acaricidal effect was judged according to the criterion shown in Test Example 1. The test was carried out with two replications of 10 insects.
Structure (SMILES),insecticidal effect (mortality rating) [1],control efficacy rating [2],acaricidal effect (mortality rating) [3]
CCCc1cc(C(C(F)(F)F)C(F)(F)F)ccc1NC(=O)c1c(C)nn(C)c1Cl [1-4],B or higher,B or higher,–
CCC(C)c1cc(C(C(F)(F)F)C(F)(F)F)ccc1NC(=O)c1c(C)nn(C)c1Cl (stereo not shown) [1-8],–,B or higher,–
Cc1nn(C)c(Cl)c1C(=O)Nc1ccc(C(C(F)(F)F)C(F)(F)F)c2ccccc12 [1-17],B or higher,–,–
Cc1nn(C)c(Cl)c1C(=O)Nc1ccc(C(C(F)(F)F)C(F)(F)F)cc1-c1ccccc1 [1-20],B or higher,–,–
Cc1nn(C)c(Cl)c1C(=O)Nc1ccc(C(F)(C(F)(F)F)C(F)(F)F)cc1C(C)C(C)C (stereo not shown) [1-21],B or higher,–,–
CCCC(C)c1cc(C(C(F)(F)F)C(F)(F)F)ccc1NC(=O)c1c(C)nn(C)c1Cl (stereo not shown) [1-22],–,–,B or higher
CCCC(C)c1cc(C(C(F)(F)F)C(F)(F)F)ccc1NC(=O)c1c(C)nn(C)c1C (stereo not shown) [1-25],–,B or higher,B or higher
CCCC(C)c1cc(C(OC)(C(F)(F)F)C(F)(F)F)ccc1NC(=O)c1c(C)nn(C)c1C (stereo not shown) [1-26],B or higher,–,B or higher
CC(C)CC(C)c1cc(C(F)(C(F)(F)F)C(F)(F)F)ccc1NC(=O)c1cn(C)nc1C(F)(F)F (stereo not shown) [1-28],B or higher,–,–
CC(C)CC(C)c1cc(C(C(F)(F)F)C(F)(F)F)ccc1NC(=O)c1cn(C(F)F)nc1C(F)(F)F (stereo not shown) [1-33],B or higher,–,–
Cc1nn(C)cc1C(=O)Nc1ccc(C(C(F)(F)F)C(F)(F)F)cc1C(C)CC(C)C (stereo not shown) [1-34],–,–,B or higher
CCc1nn(C)cc1C(=O)Nc1ccc(C(C(F)(F)F)C(F)(F)F)cc1C(C)CC(C)C (stereo not shown) [1-35],B or higher,B or higher,–
CC(C)CC(C)c1cc(C(C(F)(F)F)C(F)(F)F)ccc1NC(=O)c1cn(C)nc1Br (stereo not shown) [1-39],–,–,B or higher
CC(C)CC(C)c1cc(C(C(F)(F)F)C(F)(F)F)ccc1NC(=O)c1cn(C)nc1I (stereo not shown) [1-40],–,–,B or higher
CSc1nn(C)cc1C(=O)Nc1ccc(C(C(F)(F)F)C(F)(F)F)cc1C(C)CC(C)C (stereo not shown) [1-41],B or higher,B or higher,–
CC(C)CC(C)c1cc(C(C(F)(F)F)C(F)(F)F)ccc1NC(=O)c1cnn(C)c1S(C)(=O)=O (stereo not shown) [1-48],B or higher,–,–
CCn1ncc(C(=O)Nc2ccc(C(C(F)(F)F)C(F)(F)F)cc2C(C)CC(C)C)c1Cl (stereo not shown) [1-51],–,–,B or higher
CC(C)CC(C)c1cc(C(C(F)(F)F)C(F)(F)F)ccc1NC(=O)c1cnn(C)c1I (stereo not shown) [1-56],B or higher,–,–
CCn1ncc(C(=O)Nc2ccc(C(C(F)(F)F)C(F)(F)F)cc2C(C)CC(C)C)c1I (stereo not shown) [1-57],B or higher,–,–
Cc1nn(C)c(Cl)c1C(=O)Nc1ccc(C(F)(C(F)(F)F)C(F)(F)F)cc1C(C)CC(C)C (stereo not shown) [1-70],B or higher,–,–
CCOC(c1ccc(NC(=O)c2c(C)nn(C)c2Cl)c(C(C)CC(C)C)c1)(C(F)(F)F)C(F)(F)F (stereo not shown) [1-73],B or higher,–,–
CCn1nc(C)c(C(=O)Nc2ccc(C(C(F)(F)F)C(F)(F)F)cc2C(C)CC(C)C)c1Cl (stereo not shown) [1-78],–,–,B or higher
Cc1nn(C)c(Br)c1C(=O)Nc1ccc(C(C(F)(F)F)C(F)(F)F)cc1C(C)CC(C)C (stereo not shown) [1-81],–,B or higher,B or higher
COC(c1ccc(NC(=O)c2c(C)nn(C)c2Br)c(C(C)CC(C)C)c1)(C(F)(F)F)C(F)(F)F (stereo not shown) [1-82],B or higher,–,B or higher

Structure (SMILES),insecticidal effect (mortality rating) [1],control efficacy rating [2],acaricidal effect (mortality rating) [3]
Cc1nn(C)c(I)c1C(=O)Nc1ccc(C(C(F)(F)F)C(F)(F)F)cc1C(C)CC(C)C (stereo not shown) [1-87],–,B or higher,–
COC(c1ccc(NC(=O)c2c(C(F)(F)F)nn(C)c2Cl)c(C(C)CC(C)C)c1)(C(F)(F)F)C(F)(F)F (stereo not shown) [1-104],–,–,B or higher
Cc1nn(C)c(C)c1C(=O)Nc1ccc(C(C(F)(F)F)C(F)(F)F)cc1C(C)CC(C)C (stereo not shown) [1-107],B or higher,–,–
CCCn1nc(C)c(C(=O)Nc2ccc(C(C(F)(F)F)C(F)(F)F)cc2C(C)CC(C)C)c1C (stereo not shown) [1-119],–,–,B or higher
CCc1nn(C)c(Cl)c1C(=O)Nc1ccc(C(C(F)(F)F)C(F)(F)F)cc1C(C)CC(C)C (stereo not shown) [1-132],B or higher,–,B or higher
CCCCC(C)c1cc(C(C(F)(F)F)C(F)(F)F)ccc1NC(=O)c1c(C)nn(C)c1Cl (stereo not shown) [1-143],B or higher,–,B or higher
Cc1nn(C)c(Cl)c1C(=O)Nc1ccc(C(F)(C(F)(F)F)C(F)(F)F)cc1C(C)CCC(C)C (stereo not shown) [1-145],B or higher,–,–
Cc1nn(C)c(C)c1C(=O)Nc1ccc(C(F)(C(F)(F)F)C(F)(F)F)c(C)c1C [1-163],B or higher,–,–
Cc1nn(C)c(C)c1C(=O)Nc1ccc(C(C(F)(F)F)C(F)(F)F)c(C)c1C [1-164],B or higher,–,–
CC(C)CC(C)c1cc(C(C(F)(F)F)C(F)(F)F)ccc1NC(=O)c1ncc(Cl)cc1Cl (stereo not shown) [3-2],B or higher,–,–
CC(C)CC(C)c1cc(C(C(F)(F)F)C(F)(F)F)ccc1NC(=O)c1cnccc1C(F)(F)F (stereo not shown) [3-3],B or higher,–,–
CC(C)CC(C)c1cc(C(C(F)(F)F)C(F)(F)F)ccc1NC(=O)c1cccnc1Cl (stereo not shown) [3-4],B or higher,–,–
Cc1nnsc1C(=O)Nc1ccc(C(F)(C(F)(F)F)C(F)(F)F)cc1C(C)CC(C)C (stereo not shown) [3-10],B or higher,–,–
Cc1coc(C)c1C(=O)Nc1ccc(C(C(F)(F)F)C(F)(F)F)cc1C(C)CC(C)C (stereo not shown) [3-13],–,B or higher,B or higher
CC(C)CC(C)c1cc(C(C(F)(F)F)C(F)(F)F)ccc1NC(=O)c1cscc1Br (stereo not shown) [3-21],–,–,B or higher
CC(C)CC(C)c1cc(C(C(F)(F)F)C(F)(F)F)ccc1NC(=O)c1cccs1 (stereo not shown) [3-27],–,B or higher,–
Cc1noc(C)c1C(=O)Nc1ccc(C(C(F)(F)F)C(F)(F)F)cc1C(C)CC(C)C (stereo not shown) [3-34],–,B or higher,–
Cc1c(Cl)c(C(=O)Nc2ccc(C(C(F)(F)F)C(F)(F)F)cc2C(C)CC(C)C)nn1C (stereo not shown) [4-1],B or higher,B or higher,–
Cc1nn(C)c(C(=O)Nc2ccc(C(C(F)(F)F)C(F)(F)F)cc2C(C)CC(C)C)c1Cl (stereo not shown) [4-4],B or higher,–,–
Cc1nn(C)c(C(=O)Nc2ccc(C(C(F)(F)F)C(F)(F)F)cc2C(C)CC(C)C)c1Br (stereo not shown) [4-5],B or higher,–,–
Cc1nn(C)c(Cl)c1C(=O)Nc1ccc(C(C(F)(F)F)C(F)(F)F)cc1C(C)(C)C [Compound No. 1-10],B or higher,–,–
Cc1nn(C)c(Cl)c1C(=O)Nc1ccc(C(C(F)(F)F)C(F)(F)F)c2c1CCCC2 [Compound No. 1-14],B or higher,–,–
"COC(c1ccc(NC(=O)c2c(C)nn(C)c2C)c(C(C)CC(C)C)c1)(C(F)(F)F)C(F)(F)F (stereo not shown) [Compound No. 1-108, N-{2-(1,3-dimethylbutyl)-4-[1-methoxy-2,2,2-trifluoro-1-(trifluoromethyl)ethyl]-phenyl}-1,3,5-trimethylpyrazole-4-carboxamide]",B or higher,–,–

# Reference: patent US7459477B2, “Substituted N-phenyl-phenoxy nicotinic acid-(thio)amides and their use as herbicides” (Nihon Nohyaku, Co., Ltd., priority 2001, dated 2008)
